Assays:
[1] = Performance test: Fann rheology and gel strength of bentonite suspension with shale inhibitor; conditions: 7.14 g/l Shale Inhibitor and 85.7 g/l Bentonite
Procedure: 350 ml of tap water are introduced into a beaker, 2.5 g of the shale inhibitor (calculated as dry mass—i.e. quaternized or non-quaternized polylysine or a prior art product) are added and the mixture is stirred for 20 min. The solution is transferred into an HB mixing cup. 30 g of Cebogel® NT (Bentonite, Cebo Holland B.V., The Netherlands) are added as a model substance for shale and the mixture is stirred at low speed for 10 min. Subsequently, the Fann rheology and the gel strength are determined.

[2] = OECD 306: Biodegradability in Seawater, Closed Bottle Method
Procedure: According to the method described in “OECD Guidelines for Testing of Chemicals—1992 OECD 306: Biodegradability in Seawater, Closed Bottle Method”, the biodegradability of the quaternized polylysine according to Example 3a, of Comp. sample 2 (Ultrahib®) and of a reference substance (sodium benzoate) was evaluated after 28 days and 60 days.

SMILES | Fann 35 values 3 ([1]; tap water) | Fann 35 values 6 ([1]; tap water) | Fann 35 values 100 ([1]; tap water) | Fann 35 values 200 ([1]; tap water) | Fann 35 values 300 ([1]; tap water) | Fann 35 values 600 ([1]; tap water) | Gel strength 10′ ([1]; tap water) | Gel strength 10″ ([1]; tap water) | PV ([1]; tap water) | YP ([1]; tap water) | pH ([1]; pH of the test mixture) | biodegradability Day 28 ([2]; after 28 days) | biodegradability Day 60 ([2]; after 60 days)
C[N+](C)(C)CCO.[Cl-] [Comp. 3, Cholinchlorid] | 4 Pa | 4 Pa | 5 Pa | 6 Pa | 6 Pa | 8 Pa | 3 Pa | 3 Pa | 3 mPa*s | 5 Pa | 9.1 | – | –
O=C([O-])c1ccccc1.[Na+] [Reference, sodium benzoate] | – | – | – | – | – | – | – | – | – | – | – | 80% | 70%

— patent publication US9890315B2, “Use of polylysine as a shale inhibitor” (BASF SE, priority 2011, dated 2018)
